From patent US20080221213A1, “Tablets Comprising a High Load of Strontium” (OSTEOLOGIX A/S SYMBION SCIENCE PARK, priority 2005, published 2008)

Assay: Single oral dose pharmacokinetic study in humans (healthy male volunteers), serum strontium by ICP-MS
Conditions: by inverse regression on the dose-AUC model; 95% CI [1.073, 1.115]

For `O=C([O-])CC(=O)[O-].[Sr+2]` [strontium malonate], the “Bioequivalent dose to 2.0 g strontium ranelate (Protelos) in terms of AUC5 week” value was 1.09 g.
